Consider 13 molecules from US20240108738A1, “BICYCLIC PEPTIDE LIGANDS SPECIFIC FOR NK CELLS” (Bicycle Tx Limited, priority 2021, published 2024).

Numbered stars: 1 amine (or outer) side, 2 acyl side, 3 side chain; on linkers, the order of the positions; unused ones are H or OH. Bridge positions count the residues as written; N and C are the ends. Square brackets hold non-standard residues; d marks the D form. Peptide text beside a SMILES is read from it. TATA = O=C(CC[*:1])N1CN(C(=O)CC[*:2])CN(C(=O)CC[*:3])C1; Cba = N[C@@H](CC1CCC1)C(=O)O; dNva = CCC[C@@H](N)C(=O)O; Nva = CCC[C@H](N)C(=O)O

The target in this test is T1, Fc-tagged human NKp46 (Homo sapiens, UniProt O76036).
T1 construct: purchased ACROBiosystems NC1-H5257
T1 sequence (O76036 22-304): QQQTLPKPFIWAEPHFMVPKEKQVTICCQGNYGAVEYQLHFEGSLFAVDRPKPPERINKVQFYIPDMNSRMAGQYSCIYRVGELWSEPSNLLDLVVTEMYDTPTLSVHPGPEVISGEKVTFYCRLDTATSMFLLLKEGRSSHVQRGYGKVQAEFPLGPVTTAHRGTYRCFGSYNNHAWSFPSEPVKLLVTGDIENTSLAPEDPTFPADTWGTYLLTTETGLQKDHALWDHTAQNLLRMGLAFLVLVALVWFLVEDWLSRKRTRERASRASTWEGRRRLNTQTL
Briefly: NKp46 SPR assay (Method 1 and/or Method 2). As to conditions: SPR Method 1 and/or Method 2, Table 3B. The class given is binding. The protocol: SPR experiments were performed to determine ka (M^−1s^−1), kd (s^−1), KD (nM) values (where measurable) of various bicyclic peptides to immobilised NKp46.
For analysis of peptide binding to NKp46, a Biacore 3000 instrument was used with a Cytiva Streptavidin chip. Capture of the protein (recombinant human NKp46-Fc fusion biotinylated via Avi-tag) was carried out at 25° C. with HBS-N (10 mM HEPES, 0.15 M NaCl, pH 7.4) as the running buffer and biotinylated NKp46 was captured to a level of 400-800 RU using a dilution of protein to 0.2 μM in buffer. Buffer was then changed to PBS/0.05% Tween 20 and a dilution series of the peptides was prepared in this buffer with a final DMSO concentration of 0.5% with a top peptide concentration of 100 nM-5000 nM and 6 further 2 or 3-fold dilutions. The SPR analysis was run at 25° C. and a flow rate of 50 μl/min with 60 seconds association and 200-400 seconds dissociation time. Data were corrected for DMSO excluded volume effects. All data were double-referenced for blank injections and reference surface using standard processing procedures and data processing and kinetic fitting were performed using Scrubber software, version 2.0c (BioLogic Software). Data were fitted using simple 1:1 binding model allowing for mass transport effects where appropriate.
Peptides were tested against Fc-tagged human NKp46 (ACROBiosystems, cat no. NC1-H5257).
For analysis of peptide binding, a Biacore 8k+ instrument was used with a CM5 chip (Cytiva). All experiments were carried out at 25° C. Anti-human IgG (Fc) antibody (Cytiva) was immobilized on all flow cells by standard amine coupling chemistry. The running buffer was HBS-N(Cytiva, 10 mM HEPES, 0.15 M NaCl, pH 7.4) and the flow rate was 10 μL/min. The carboxymethyl dextran surface was activated with a 1:1 ratio of 0.4 M 1-ethyl-3-(3-dimethylaminopropyl) carbodiimide hydrochloride (EDC)/0.1 M N-hydroxy succinimide (NHS) (Cytiva) for 420s. […] Residual activated groups were blocked with a 420 s injection of 1 M ethanolamine (pH 8.5). The final surface density was 3000-5000 RU. Fc-tagged human NKp46 was diluted to 0.1 μM in HBS-N and was captured on flow cell 2 only of the sensor chip at a flow rate of 10 μL/min to 500-1000 RU. The buffer was then changed to PBS-P+(Cytiva) supplemented with 2% DMSO. […] The flow rate was 50 μL/min with 60 s association and 400 s dissociation. Data were corrected for DMSO volume exclusion effects. All data were double-referenced against blank injections and reference surface response using standard processing procedures. Data processing and kinetic fitting was performed using Biacore Insight Evaluation Software with Extended Screening and Characterization Extension (Cytiva). Data were fitted using steady state affinity 1:1 binding model to determine KD. Data were fitted using kinetic 1:1 binding model to determine kinetic constants where appropriate.
One may read the Kd as a measure of binding affinity in units of concentration. Read a low Kd as a tighter complex. As for `CSCC[C@@H]1NC(=O)[C@@H]2CSCCC(=O)N3CN(CN(C3)C(=O)CCSC[C@@H](C(=O)N[C@@H](C)C(N)=O)NC(=O)[C@H](C(C)C)NC(=O)[C@H](CCCCN)NC(=O)CNC(=O)[C@H]([C@@H](C)O)NC(=O)[C@H](CCC(N)=O)NC1=O)C(=O)CCSC[C@H](NC(=O)[C@H](C)N)C(=O)N[C@@H](CC(N)=O)C(=O)N[C@@H](CC(C)C)C(=O)N[C@@H](CCC(N)=O)C(=O)N[C@@H](CCC(N)=O)C(=O)N[C@@H](C)C(=O)N2` [BCY19713, A-(SEQ ID NO: 102)-A] (H-ACNLQQACMQTGKVCA-NH2; linker 2-8-15 via TATA; N-terminus assumed), binding was put at a Kd of 1830 nM.
Regarding `CCC[C@@H]1NC(=O)[C@H](CCSC)NC(=O)[C@@H]2CSCCC(=O)N3CN(CN(C3)C(=O)CCSC[C@@H](C(=O)N[C@@H](C)C(N)=O)NC(=O)[C@H](C(C)C)NC(=O)[C@H](CCCCN)NC(=O)CNC(=O)[C@H]([C@@H](C)O)NC1=O)C(=O)CCSC[C@H](NC(=O)[C@H](C)N)C(=O)N[C@@H](CC(N)=O)C(=O)N[C@@H](CC(C)C)C(=O)N[C@@H](CCC(N)=O)C(=O)N[C@@H](C)C(=O)N1CCC[C@H]1C(=O)N2` [BCY19704, A-(SEQ ID NO: 95)-A] (H-ACNLQAPCM[Nva]TGKVCA-NH2; linker 2-8-15 via TATA; N-terminus assumed), the Kd came to 1620 nM.
The same measure for `CSCC[C@@H]1NC(=O)[C@@H]2CSCCC(=O)N3CN(CN(C3)C(=O)CCSC[C@H](N)C(=O)N[C@@H](CC(N)=O)C(=O)N[C@@H](CC(C)C)C(=O)N[C@@H](CCC(N)=O)C(=O)N[C@@H](C)C(=O)N3CCC[C@H]3C(=O)N2)C(=O)CCSC[C@@H](C(N)=O)NC(=O)[C@H](C(C)C)NC(=O)[C@H](CCCCN)NC(=O)CNC(=O)[C@H]([C@@H](C)O)NC(=O)[C@H](CC(C)C)NC1=O` [BCY18295, (SEQ ID NO: 4)] (H-CNLQAPCMLTGKVC-NH2; linker 1-7-14 via TATA; C-terminus assumed): 6410 nM; for `CSCC[C@@H]1NC(=O)[C@@H]2CSCCC(=O)N3CN(CN(C3)C(=O)CCSC[C@H](NC(=O)[C@@H](N)CCCCN)C(=O)N[C@@H](CC(N)=O)C(=O)N[C@@H](CC(C)C)C(=O)N[C@@H](CCC(N)=O)C(=O)N[C@@H](C)C(=O)N3CCC[C@H]3C(=O)N2)C(=O)CCSC[C@@H](C(=O)N[C@@H](C)C(N)=O)NC(=O)[C@H](C(C)C)NC(=O)[C@H](CCCCN)NC(=O)CNC(=O)[C@H]([C@@H](C)O)NC(=O)[C@H](CC(C)C)NC1=O` [BCY19695, K-(SEQ ID NO: 4)-A] (H-KCNLQAPCMLTGKVCA-NH2; linker 2-8-15 via TATA; N-terminus assumed): 2380 nM.
Molecule `CC[C@H](C)[C@@H]1NC(=O)CNC(=O)[C@H](Cc2c[nH]c3ccccc23)NC(=O)[C@H](C)NC(=O)[C@@H]2CSCCC(=O)N3CN(CN(C3)C(=O)CCSC[C@@H](C(=O)N[C@@H](C)C(N)=O)NC1=O)C(=O)CCSC[C@H](NC(=O)[C@H](C)N)C(=O)N[C@@H](CC(=O)O)C(=O)N[C@@H](CC(C)C)C(=O)N[C@@H]([C@@H](C)O)C(=O)N[C@@H]([C@@H](C)O)C(=O)N[C@@H](Cc1c[nH]cn1)C(=O)N[C@@H](CC(N)=O)C(=O)N2` [BCY18269, A-(SEQ ID NO: 119)-A] (H-ACDLTTHNCAWGICA-NH2; linker 2-9-14 via TATA) yielded a Kd of 1640 nM.
Take `CSCC[C@@H]1NC(=O)[C@@H]2CSCCC(=O)N3CN(CN(C3)C(=O)CCSC[C@@H](C(=O)N[C@@H](C)C(N)=O)NC(=O)[C@H](C(C)C)NC(=O)[C@H](CCCCN)NC(=O)CNC(=O)[C@H]([C@@H](C)O)NC(=O)[C@H](Cc3c[nH]cn3)NC1=O)C(=O)CCSC[C@H](NC(=O)[C@H](C)N)C(=O)N[C@@H](CC(N)=O)C(=O)N[C@@H](CC(C)C)C(=O)N[C@@H](CCC(N)=O)C(=O)N[C@@H](C)C(=O)N1CCC[C@H]1C(=O)N2` [BCY19711, A-(SEQ ID NO: 100)-A] (H-ACNLQAPCMHTGKVCA-NH2; linker 2-8-15 via TATA; N-terminus assumed): the Kd came to 2750 nM.
For `CC(=O)N[C@H]1CSCCC(=O)N2CN3CN(C2)C(=O)CCSC[C@H](NC(=O)[C@H](CC(C)C)NC(=O)[C@H](Cc2ccc(O)cc2)NC(=O)[C@H](CC(=O)O)NC(=O)[C@@H]2CCCN2C(=O)[C@H](CC2CCC2)NC(=O)[C@H](CCO)NC1=O)C(=O)N[C@H](C)C(=O)N[C@@H](CC(=O)O)C(=O)N[C@@H](CCC(=O)O)C(=O)N[C@@H](Cc1ccc(O)cc1)C(=O)N[C@H](C(N)=O)CSCCC3=O` [BCY18434, Ac-(SEQ ID NO: 137)], the Kd is 44 nM.
As to `CSCC[C@@H]1NC(=O)[C@@H]2CSCCC(=O)N3CN(CN(C3)C(=O)CCSC[C@@H](C(=O)N[C@@H](C)C(N)=O)NC(=O)[C@H](C(C)C)NC(=O)[C@H](CCCCN)NC(=O)CNC(=O)[C@H]([C@@H](C)O)NC(=O)[C@H](CCC(=O)O)NC1=O)C(=O)CCSC[C@H](NC(=O)[C@H](C)N)C(=O)N[C@@H](CC(N)=O)C(=O)N[C@@H](CC(C)C)C(=O)N[C@@H](CCC(N)=O)C(=O)N[C@@H](C)C(=O)N1CCC[C@H]1C(=O)N2` [BCY18316, A-(SEQ ID NO: 78)-A] (H-ACNLQAPCMETGKVCA-NH2; linker 2-8-15 via TATA; C-terminus assumed), binding was characterised by a dissociation constant (Kd) of 1510 nM.
`CC[C@H](C)[C@@H]1NC(=O)CNC(=O)[C@H](Cc2cn(C)c3ccccc23)NC(=O)[C@H](CCC(N)=O)NC(=O)[C@@H]2CSCCC(=O)N3CN(CN(C3)C(=O)CCSC[C@@H](C(=O)N[C@@H](C)C(N)=O)NC1=O)C(=O)CCSC[C@H](NC(=O)[C@H](C)N)C(=O)N[C@@H](CC(=O)O)C(=O)N[C@@H](CC(C)C)C(=O)N[C@@H]([C@@H](C)O)C(=O)N[C@@H]([C@@H](C)O)C(=O)N[C@@H](Cc1c[nH]cn1)C(=O)N[C@@H](CC(N)=O)C(=O)N2` [BCY18288, A-(SEQ ID NO: 131)-A] showed a Kd of 354 nM.
The same measure for `CSCC[C@@H]1NC(=O)[C@@H]2CSCCC(=O)N3CN(CN(C3)C(=O)CCSC[C@@H](C(=O)N[C@@H](C)C(N)=O)NC(=O)[C@H](C(C)C)NC(=O)[C@H](CCCCN)NC(=O)[C@H](C)NC(=O)[C@H]([C@@H](C)O)NC(=O)[C@H](CC(C)C)NC1=O)C(=O)CCSC[C@H](NC(=O)[C@H](C)N)C(=O)N[C@@H](CC(N)=O)C(=O)N[C@@H](CC(C)C)C(=O)N[C@@H](CCC(N)=O)C(=O)N[C@@H](C)C(=O)N1CCC[C@H]1C(=O)N2` [BCY18303, A-(SEQ ID NO: 67)-A] (H-ACNLQAPCMLTAKVCA-NH2; linker 2-8-15 via TATA): 2750 nM.
As for `CSCC[C@@H]1NC(=O)[C@@H]2CSCCC(=O)N3CN(CN(C3)C(=O)CCSC[C@@H](C(=O)N[C@@H](C)C(N)=O)NC(=O)[C@H](C(C)C)NC(=O)[C@H](CCCCN)NC(=O)CNC(=O)[C@H](C)NC(=O)[C@H](CC(C)C)NC1=O)C(=O)CCSC[C@H](NC(=O)[C@H](C)N)C(=O)N[C@@H](CC(N)=O)C(=O)N[C@@H](CC(C)C)C(=O)N[C@@H](CCC(N)=O)C(=O)N[C@@H](C)C(=O)N1CCC[C@H]1C(=O)N2` [BCY18302, A-(SEQ ID NO: 66)-A] (H-ACNLQAPCMLAGKVCA-NH2; linker 2-8-15 via TATA; N-terminus assumed), the figure is 5380 nM; as for `CC(C)C[C@@H]1NC(=O)[C@H](CC(N)=O)NC(=O)[C@@H](NC(=O)[C@H](C)N)CSCCC(=O)N2CN3CN(C2)C(=O)CCSC[C@H](NC(=O)[C@@H]2CCCN2C(=O)[C@H](C)NC(=O)[C@H](CCC(N)=O)NC1=O)C(=O)N[C@@H](CC(C)C)C(=O)N[C@@H](CC(C)C)C(=O)N[C@@H]([C@@H](C)O)C(=O)NCC(=O)N[C@@H](CCCCN)C(=O)N[C@@H](C(C)C)C(=O)N[C@H](C(=O)N[C@@H](C)C(N)=O)CSCCC3=O` [BCY18313, A-(SEQ ID NO: 75)-A] (H-ACNLQAPCLLTGKVCA-NH2; linker 2-8-15 via TATA; N-terminus assumed), 2750 nM.
As for `CCC[C@H]1NC(=O)[C@@H]2CSCCC(=O)N3CN(CN(C3)C(=O)CCSC[C@H](NC(C)=O)C(=O)N[C@@H](Cc3ccc(O)cc3)C(=O)N[C@@H](CC3CCC3)C(=O)N3CCC[C@H]3C(=O)N[C@@H](CC(=O)O)C(=O)N[C@@H](Cc3ccc(O)cc3)C(=O)N[C@@H](CC(C)C)C(=O)N2)C(=O)CCSC[C@@H](C(N)=O)NC(=O)[C@H](Cc2ccc(O)cc2)NC(=O)[C@H](CCC(=O)O)NC(=O)[C@H](CC(=O)O)NC1=O` [BCY18444, Ac-(SEQ ID NO: 145)] (Ac-CY[Cba]PDYLC[dNva]DEYC-NH2; linker 1-8-13 via TATA), the figure is 3.9 nM.
